Laboratory results from PubChem BioAssay AID248 (DTP/NCI, 2004).
Toxic doses and inconclusive results are not listed. Cut-off read from the data, not from the text of the source: active = T/C of 150% or more; inactive = T/C below 125%.

Tested on: L1210 leukemia ip in BDF1 mice, survival T/C
Test: NCI In Vivo Anticancer Drug Screen. Data for tumor model L1210 Leukemia (intraperitoneal) in B6D2F1 (BDF1) mice
Details: endpoint: mean survival time, vehicle: saline with Tween-80, higher = longer survival
Procedure, shortened: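 Value reflects the ratio of survival in compound-treated mice to survival in vehicle-treated controls, with both groups carrying the same transplanted tumor.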

Measured: T/C

OCC(O)C(O)C(O)C(O)C(O)c1nc2ccccc2[nH]1 (stereo unspecified)
inactive: dose: 100.0 mg/kg/injection, schedule: Q01DX009 (ip) 101 % of control | dose: 100.0 mg/kg/injection, schedule: Q04DX003 (ip) 97 % of control | dose: 200.0 mg/kg/injection, schedule: Q01DX009 (ip) 98 % of control | dose: 200.0 mg/kg/injection, schedule: Q04DX003 (ip) 93 % of control | dose: 400.0 mg/kg/injection, schedule: Q01DX009 (ip) 96 % of control | dose: 400.0 mg/kg/injection, schedule: Q04DX003 (ip) 103 % of control

COc1cc(/C=N/[N+](C)(C)C)ccc1O
inactive: dose: 12.5 mg/kg/injection, schedule: Q01DX009 (ip) 94 % of control | dose: 12.5 mg/kg/injection, schedule: Q04DX003 (ip) 96 % of control | dose: 25.0 mg/kg/injection, schedule: Q01DX009 (ip) 96 % of control | dose: 25.0 mg/kg/injection, schedule: Q04DX003 (ip) 93 % of control | dose: 50.0 mg/kg/injection, schedule: Q04DX003 (ip) 97 % of control
